Measured values reported in PMC2994389 (2010).

Molecular target: T1, PARP-1 (Homo sapiens, UniProt P09874)
T1 construct: gene PARP1
Test: colorimetric PARP assay kit (Trevigen), biotinylated NAD incorporation
Type: biochemical

T1 sequence (P09874 2-1014): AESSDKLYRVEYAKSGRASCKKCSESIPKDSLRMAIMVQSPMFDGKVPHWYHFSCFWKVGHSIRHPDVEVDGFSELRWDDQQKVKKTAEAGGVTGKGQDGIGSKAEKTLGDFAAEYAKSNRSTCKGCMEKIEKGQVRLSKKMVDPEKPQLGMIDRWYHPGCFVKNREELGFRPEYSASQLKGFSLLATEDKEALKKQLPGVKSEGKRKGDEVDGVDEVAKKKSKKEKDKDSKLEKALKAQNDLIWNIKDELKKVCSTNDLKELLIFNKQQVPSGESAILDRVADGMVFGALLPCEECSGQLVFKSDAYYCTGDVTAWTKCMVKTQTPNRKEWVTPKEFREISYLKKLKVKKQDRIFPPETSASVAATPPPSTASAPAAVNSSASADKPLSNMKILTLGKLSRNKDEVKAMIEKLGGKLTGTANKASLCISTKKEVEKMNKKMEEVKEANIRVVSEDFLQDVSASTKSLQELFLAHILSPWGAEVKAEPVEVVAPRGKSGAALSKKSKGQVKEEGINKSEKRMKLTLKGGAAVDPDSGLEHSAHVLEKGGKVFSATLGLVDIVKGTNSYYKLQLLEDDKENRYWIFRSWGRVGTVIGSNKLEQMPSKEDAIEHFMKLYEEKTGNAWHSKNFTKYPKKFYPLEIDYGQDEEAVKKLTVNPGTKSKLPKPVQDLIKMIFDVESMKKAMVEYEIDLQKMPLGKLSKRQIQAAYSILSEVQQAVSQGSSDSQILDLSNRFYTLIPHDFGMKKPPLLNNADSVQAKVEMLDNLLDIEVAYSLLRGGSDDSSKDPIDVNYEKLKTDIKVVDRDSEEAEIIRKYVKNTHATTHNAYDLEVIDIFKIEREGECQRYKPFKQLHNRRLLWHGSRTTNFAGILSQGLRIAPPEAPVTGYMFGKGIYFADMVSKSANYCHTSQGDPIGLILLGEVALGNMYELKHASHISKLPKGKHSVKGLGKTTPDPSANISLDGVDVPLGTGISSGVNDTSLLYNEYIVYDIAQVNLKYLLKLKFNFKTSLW

IC50: 320 µM
SMILES: NCCS(=O)(=O)O [TAU, taurine]
